Data reported in the CheMixHub viscosity set.
± gives the uncertainty stated by the source.

Assay: xn = mol fraction of the nth substance listed

CC1CCCCC1=O (centres undefined) + CN(C)C=O
viscosity [mPa·s], 100 kPa
Conditions	x1 = 0.0825	x1 = 0.1712	x1 = 0.2787	x1 = 0.3863	x1 = 0.4889	x1 = 0.5801	x1 = 0.6819	x1 = 0.7805	x1 = 0.8801
303.15 K	0.889 ± 0.02	1.027 ± 0.023	1.192 ± 0.027	1.353 ± 0.031	1.505 ± 0.034	1.638 ± 0.037	1.783 ± 0.04	1.921 ± 0.044	2.06 ± 0.047
308.15 K	0.85 ± 0.019	0.987 ± 0.023	1.15 ± 0.026	1.309 ± 0.03	1.459 ± 0.033	1.59 ± 0.036	1.735 ± 0.039	1.872 ± 0.042	2.009 ± 0.046
313.15 K	0.81 ± 0.019	0.948 ± 0.022	1.108 ± 0.025	1.266 ± 0.029	1.413 ± 0.032	1.543 ± 0.035	1.688 ± 0.038	1.824 ± 0.041	1.959 ± 0.044

CCCCCCCCCO + CN(C)C=O
Conditions	viscosity [mPa·s]
308.15 K, 101.3 kPa, x2 = 0.2201	2.965 ± 0.065

CC1CCCCC1=O (centres undefined) + CN(C)c1ccccc1
viscosity [mPa·s], 101 kPa
Conditions	303.15 K	308.15 K
x2 = 0.0798	2.088 ± 0.072	2.021 ± 0.07
x2 = 0.1302	2.007 ± 0.07	1.934 ± 0.067
x2 = 0.2014	1.899 ± 0.066	1.82 ± 0.064
x2 = 0.2705	1.801 ± 0.063	1.718 ± 0.06
x2 = 0.3456	1.704 ± 0.06	1.618 ± 0.057
x2 = 0.4121	1.625 ± 0.057	1.536 ± 0.054
x2 = 0.4952	1.536 ± 0.054	1.446 ± 0.052
x2 = 0.5625	1.471 ± 0.052	1.379 ± 0.049
x2 = 0.6325	1.41 ± 0.05	1.318 ± 0.047
x2 = 0.7025	1.355 ± 0.049	1.264 ± 0.046
x2 = 0.7652	1.31 ± 0.047	1.221 ± 0.044
x2 = 0.8312	1.268 ± 0.046	1.183 ± 0.043
x2 = 0.9025	1.226 ± 0.044	1.148 ± 0.042

CC1CCCCC1=O (centres undefined) + CNC=O
viscosity [mPa·s], 100 kPa
Conditions	x1 = 0.0925	x1 = 0.1835	x1 = 0.2805	x1 = 0.3919	x1 = 0.4985	x1 = 0.5995	x1 = 0.6901	x1 = 0.7921	x1 = 0.8995
303.15 K	1.655 ± 0.038	1.722 ± 0.039	1.79 ± 0.041	1.865 ± 0.042	1.934 ± 0.044	1.997 ± 0.045	2.052 ± 0.047	2.111 ± 0.048	2.171 ± 0.049
308.15 K	1.541 ± 0.035	1.614 ± 0.037	1.689 ± 0.039	1.771 ± 0.04	1.847 ± 0.042	1.917 ± 0.044	1.978 ± 0.045	2.045 ± 0.046	2.111 ± 0.048
313.15 K	1.439 ± 0.033	1.518 ± 0.035	1.597 ± 0.036	1.684 ± 0.038	1.766 ± 0.04	1.842 ± 0.042	1.909 ± 0.043	1.982 ± 0.045	2.053 ± 0.047

CC(=O)N(C)C + CO
viscosity [mPa·s], 101 kPa
Conditions	303.15 K	308.15 K	313.15 K	318.15 K
x1 = 0.0976	0.572 ± 0.008	–	–	–
x1 = 0.1993	0.626 ± 0.008	–	–	–
x1 = 0.2967	0.673 ± 0.009	–	–	–
x1 = 0.3971	0.712 ± 0.009	–	–	–
x1 = 0.4998	0.75 ± 0.009	–	–	–
x1 = 0.5962	0.78 ± 0.009	–	–	–
x1 = 0.648	0.795 ± 0.009	–	–	–
x1 = 0.7762	0.829 ± 0.009	–	–	–
x1 = 0.8699	0.846 ± 0.01	–	–	–
x2 = 0.125	0.872 ± 0.011	0.795 ± 0.01	0.737 ± 0.01	0.693 ± 0.009
x2 = 0.232	0.856 ± 0.011	0.784 ± 0.01	0.725 ± 0.009	0.675 ± 0.009
x2 = 0.324	0.832 ± 0.011	0.763 ± 0.01	0.709 ± 0.009	0.655 ± 0.009
x2 = 0.405	0.797 ± 0.01	0.733 ± 0.01	0.682 ± 0.009	0.625 ± 0.008
x2 = 0.644	0.697 ± 0.009	0.647 ± 0.009	0.598 ± 0.008	0.539 ± 0.007
x2 = 0.915	0.567 ± 0.008	0.531 ± 0.007	0.492 ± 0.007	0.431 ± 0.006
x2 = 0.939	0.544 ± 0.007	0.507 ± 0.007	0.471 ± 0.006	0.413 ± 0.006
x2 = 0.961	0.529 ± 0.007	0.494 ± 0.007	0.458 ± 0.006	0.398 ± 0.006

CCCCCCCCCO + CO
viscosity [mPa·s], 101 kPa
Conditions	298.15 K	308.15 K	318.15 K
x2 = 0.05	8.515 ± 0.081	6.146 ± 0.058	4.44 ± 0.042
x2 = 0.1	7.93 ± 0.076	5.765 ± 0.054	4.2 ± 0.039
x2 = 0.15	7.356 ± 0.07	5.387 ± 0.05	3.958 ± 0.037
x2 = 0.2	6.793 ± 0.064	5.013 ± 0.047	3.716 ± 0.034
x2 = 0.25	6.245 ± 0.059	4.644 ± 0.043	3.474 ± 0.031
x2 = 0.3	5.711 ± 0.054	4.281 ± 0.039	3.233 ± 0.029
x2 = 0.35	5.193 ± 0.049	3.925 ± 0.036	2.994 ± 0.027
x2 = 0.4	4.694 ± 0.044	3.579 ± 0.032	2.756 ± 0.024
x2 = 0.45	4.214 ± 0.039	3.242 ± 0.029	2.521 ± 0.022
x2 = 0.5	3.754 ± 0.034	2.916 ± 0.026	2.29 ± 0.02
x2 = 0.55	3.317 ± 0.03	2.603 ± 0.023	2.063 ± 0.018
x2 = 0.6	2.902 ± 0.026	2.302 ± 0.02	1.841 ± 0.016
x2 = 0.65	2.511 ± 0.022	2.016 ± 0.018	1.625 ± 0.014
x2 = 0.7	2.146 ± 0.019	1.744 ± 0.015	1.417 ± 0.012
x2 = 0.75	1.807 ± 0.016	1.488 ± 0.013	1.215 ± 0.011
x2 = 0.8	1.496 ± 0.013	1.248 ± 0.011	1.023 ± 0.009
x2 = 0.85	1.212 ± 0.011	1.025 ± 0.009	0.8404 ± 0.0074
x2 = 0.9	0.9583 ± 0.0084	0.8198 ± 0.0073	0.6684 ± 0.006
x2 = 0.95	0.7342 ± 0.0066	0.6326 ± 0.0059	0.508 ± 0.0048
